Measurements taken from the supplement of paper PMC8960247.
± gives the standard error.

These molecules were tested on 621-102 (TSC2-deficient) (assay: relative viability vs DMSO; higher = less cytotoxic). Conditions: 0.0001 µM; serum: 10% FBS; 72 h.
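Further: immortalized renal angiomyolipoma cells stably carrying empty vector or TSC2, dosed in 384-well plates in DMEM, viability normalized to vehicle-treated wells within each plate.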

Row | SMILES | relative viability
1 | CC(C)OC(=O)C1=CN(C(=O)c2ccc(F)c(F)c2)CC(C)(C)c2c1[nH]c1ccccc21 | 111 ± 1.3%
2 | CN(C)Cc1cccc(N/C(=C2\C(=O)Nc3cc(C(N)=O)ccc32)c2ccccc2)c1 | 103 ± 1.7%
3 | CN(C)Cc1cccc(N=C(c2ccccc2)c2c(O)[nH]c3cc(C(=O)N(C)C)ccc23)c1 | 107 ± 1.5%
4 | CNC(=O)Nc1ccc(-c2nc(N3CC4CCC(C3)O4)c3cnn(C4CCC5(CC4)OCCO5)c3n2)cc1 | 97.36 ± 0.31%
5 | COC(=O)N[C@H](C(=O)N1CCC[C@H]1c1ncc(-c2ccc(-c3ccc(-c4cnc([C@@H]5CCCN5C(=O)[C@@H](NC(=O)OC)C(C)C)[nH]4)cc3)cc2)[nH]1)C(C)C | 103 ± 3.2%
6 | COc1cc2c(Nc3ccc(NC(=O)c4ccccc4)cc3)ncnc2cc1OCCCN1CCOCC1 | 97.1 ± 1.7%
7 | COc1cc2c(Oc3ccc(NC(=O)C4(C(=O)Nc5ccc(F)cc5)CC4)cc3F)ccnc2cc1OCCCN1CCOCC1 | 108 ± 7.4%
8 | COc1ccccc1N1CCN(CCN(C(=O)C2CCCCC2)c2ccccn2)CC1 | 108 ± 0.74%
9 | C[C@@H]1CCO[C@H]2Cn3cc(C(=O)NCc4ccc(F)cc4F)c(=O)c(O)c3C(=O)N12 | 102 ± 1.5%
10 | C[S+]([O-])c1ccc(-c2nc(-c3ccc(F)cc3)c(-c3ccncc3)[nH]2)cc1 (stereo not given) | 112 ± 5%
11 | Cc1[nH]c(/C=C2\C(=O)Nc3ccc(S(=O)(=O)N(C)c4cccc(Cl)c4)cc32)c(C)c1C(=O)N1CCN(C)CC1 | 98.4 ± 1.2%
12 | Cc1[nH]nc2ccc(-c3cncc(OC[C@@H](N)Cc4ccccc4)c3)cc12 | 114.1 ± 0.3%
13 | Cc1c(NC(=O)OC[C@@H]2COCCN2)cn2ncnc(Nc3ccc4c(cnn4Cc4cccc(F)c4)c3)c12 | 101 ± 2.7%
14 | Cc1ccc(C(=O)N(CCCN)[C@@H](c2oc3cc(Cl)ccc3c(=O)c2Cc2ccccc2)C(C)C)cc1 | 61.7 ± 2.2%
15 | Cc1ccc(NC(=O)c2cccc(N(C)C)c2)cc1NC(=O)c1ccc(O)cc1 | 90.2 ± 2%
16 | Cc1cccc(-c2[nH]c(C(C)(C)C)nc2-c2ccc3nccnc3c2)n1 | 115.4 ± 0.35%
17 | Cc1cnc(Nc2ccc(N3CCN(C)CC3)cc2)nc1Nc1cccc(S(=O)(=O)NC(C)(C)C)c1 | 116.1 ± 0.23%
18 | Cn1c(N2CCCCS2(=O)=O)nc(C(=O)NCc2ccc(F)cc2)c(O)c1=O | 104 ± 2.9%
19 | Cn1cc(C2=C(c3ccc(Cl)cc3Cl)C(=O)NC2=O)c2ccccc21 | 107.48 ± 0.025%
20 | N#Cc1c(O)c2c(-c3ccc(-c4ccccc4O)cc3)csc2[nH]c1=O | 87.4 ± 2.6%
21 | NC(=O)[C@@H](CCC(F)(F)F)N(Cc1ccc(-c2ncon2)cc1F)S(=O)(=O)c1ccc(Cl)cc1 | 109.7 ± 0.27%
22 | NC(=O)c1ccc(-c2nc(-c3ccccn3)c(-c3ccc4c(c3)OCO4)[nH]2)cc1 | 111 ± 2.5%
23 | NC(=O)c1cccc2[nH]c(-c3ccc(C4CCCN4)cc3F)nc12 (stereo not given) | 98.7 ± 1.1%
24 | Nc1nccc(Oc2ccc(NC(=O)c3c[nH]cc(-c4ccc(F)cc4)c3=O)cc2F)c1Cl | 94 ± 10%
25 | O=C(NC[C@H](O)CO)c1ccncc1Nc1ccc(I)cc1F | 100.3 ± 0.48%
26 | O=C1NC(=O)/C(=C/c2ccc(-c3ccc(F)cc3O)o2)S1 | 111 ± 2.5%
27 | O=C1NC(=O)/C(=C/c2ccc3c(c2)OC(F)(F)O3)S1 | 104 ± 2.5%
28 | O=C1NC(=O)/C(=C\c2ccc3nccnc3c2)S1 | 106 ± 1.9%
29 | Oc1c2ccccc2c2c3c(cccc13)N=N2 | 104.7 ± 0.13%
30 | Oc1ccc(-c2nc(-c3ccc(F)cc3)c(-c3ccncc3)[nH]2)cc1 | 104 ± 3.7%

Same assay, conditions: 0.001 µM; serum: 10% FBS; 72 h

Row | SMILES | relative viability
31 | CC(C)OC(=O)C1=CN(C(=O)c2ccc(F)c(F)c2)CC(C)(C)c2c1[nH]c1ccccc21 | 106.3 ± 0.78%
32 | CN(C)Cc1cccc(N/C(=C2\C(=O)Nc3cc(C(N)=O)ccc32)c2ccccc2)c1 | 107 ± 0.88%
33 | CN(C)Cc1cccc(N=C(c2ccccc2)c2c(O)[nH]c3cc(C(=O)N(C)C)ccc23)c1 | 106 ± 1.2%
34 | CNC(=O)Nc1ccc(-c2nc(N3CC4CCC(C3)O4)c3cnn(C4CCC5(CC4)OCCO5)c3n2)cc1 | 93.4 ± 2.7%
35 | COC(=O)N[C@H](C(=O)N1CCC[C@H]1c1ncc(-c2ccc(-c3ccc(-c4cnc([C@@H]5CCCN5C(=O)[C@@H](NC(=O)OC)C(C)C)[nH]4)cc3)cc2)[nH]1)C(C)C | 105 ± 0.22%
36 | COc1cc2c(Nc3ccc(NC(=O)c4ccccc4)cc3)ncnc2cc1OCCCN1CCOCC1 | 91.95 ± 0.3%
37 | COc1cc2c(Oc3ccc(NC(=O)C4(C(=O)Nc5ccc(F)cc5)CC4)cc3F)ccnc2cc1OCCCN1CCOCC1 | 111 ± 6.2%
38 | COc1ccccc1N1CCN(CCN(C(=O)C2CCCCC2)c2ccccn2)CC1 | 102.3 ± 0.41%
39 | C[C@@H]1CCO[C@H]2Cn3cc(C(=O)NCc4ccc(F)cc4F)c(=O)c(O)c3C(=O)N12 | 104 ± 2.7%
40 | C[S+]([O-])c1ccc(-c2nc(-c3ccc(F)cc3)c(-c3ccncc3)[nH]2)cc1 (stereo not given) | 108.1 ± 0.69%
41 | Cc1[nH]c(/C=C2\C(=O)Nc3ccc(S(=O)(=O)N(C)c4cccc(Cl)c4)cc32)c(C)c1C(=O)N1CCN(C)CC1 | 101 ± 2.5%
42 | Cc1[nH]nc2ccc(-c3cncc(OC[C@@H](N)Cc4ccccc4)c3)cc12 | 108 ± 3.1%
43 | Cc1c(NC(=O)OC[C@@H]2COCCN2)cn2ncnc(Nc3ccc4c(cnn4Cc4cccc(F)c4)c3)c12 | 104 ± 2%
44 | Cc1ccc(C(=O)N(CCCN)[C@@H](c2oc3cc(Cl)ccc3c(=O)c2Cc2ccccc2)C(C)C)cc1 | 67.7 ± 4.4%
45 | Cc1ccc(NC(=O)c2cccc(N(C)C)c2)cc1NC(=O)c1ccc(O)cc1 | 102 ± 2.6%
46 | Cc1cccc(-c2[nH]c(C(C)(C)C)nc2-c2ccc3nccnc3c2)n1 | 111 ± 2.5%
47 | Cc1cnc(Nc2ccc(N3CCN(C)CC3)cc2)nc1Nc1cccc(S(=O)(=O)NC(C)(C)C)c1 | 120 ± 3.8%
48 | Cn1c(N2CCCCS2(=O)=O)nc(C(=O)NCc2ccc(F)cc2)c(O)c1=O | 106 ± 1.5%
49 | Cn1cc(C2=C(c3ccc(Cl)cc3Cl)C(=O)NC2=O)c2ccccc21 | 103 ± 2.8%
50 | N#Cc1c(O)c2c(-c3ccc(-c4ccccc4O)cc3)csc2[nH]c1=O | 101.1 ± 0.29%
51 | NC(=O)[C@@H](CCC(F)(F)F)N(Cc1ccc(-c2ncon2)cc1F)S(=O)(=O)c1ccc(Cl)cc1 | 108 ± 2.7%
52 | NC(=O)c1ccc(-c2nc(-c3ccccn3)c(-c3ccc4c(c3)OCO4)[nH]2)cc1 | 116 ± 1.5%
53 | NC(=O)c1cccc2[nH]c(-c3ccc(C4CCCN4)cc3F)nc12 (stereo not given) | 103.2 ± 0.25%
54 | Nc1nccc(Oc2ccc(NC(=O)c3c[nH]cc(-c4ccc(F)cc4)c3=O)cc2F)c1Cl | 118 ± 2.6%
55 | O=C(NC[C@H](O)CO)c1ccncc1Nc1ccc(I)cc1F | 92 ± 13%
56 | O=C1NC(=O)/C(=C/c2ccc(-c3ccc(F)cc3O)o2)S1 | 109 ± 2.8%
57 | O=C1NC(=O)/C(=C/c2ccc3c(c2)OC(F)(F)O3)S1 | 97.7 ± 4.8%
58 | O=C1NC(=O)/C(=C\c2ccc3nccnc3c2)S1 | 114 ± 1.2%
59 | Oc1c2ccccc2c2c3c(cccc13)N=N2 | 103 ± 4.5%
60 | Oc1ccc(-c2nc(-c3ccc(F)cc3)c(-c3ccncc3)[nH]2)cc1 | 106.7 ± 0.78%

Same assay, conditions: 0.01 µM; serum: 10% FBS; 72 h

Row | SMILES | relative viability
61 | CC(C)OC(=O)C1=CN(C(=O)c2ccc(F)c(F)c2)CC(C)(C)c2c1[nH]c1ccccc21 | 104 ± 1.6%
62 | CN(C)Cc1cccc(N/C(=C2\C(=O)Nc3cc(C(N)=O)ccc32)c2ccccc2)c1 | 104 ± 2%
63 | CN(C)Cc1cccc(N=C(c2ccccc2)c2c(O)[nH]c3cc(C(=O)N(C)C)ccc23)c1 | 102 ± 1.4%
64 | CNC(=O)Nc1ccc(-c2nc(N3CC4CCC(C3)O4)c3cnn(C4CCC5(CC4)OCCO5)c3n2)cc1 | 76.3 ± 3.4%
65 | COC(=O)N[C@H](C(=O)N1CCC[C@H]1c1ncc(-c2ccc(-c3ccc(-c4cnc([C@@H]5CCCN5C(=O)[C@@H](NC(=O)OC)C(C)C)[nH]4)cc3)cc2)[nH]1)C(C)C | 106 ± 1.6%
66 | COc1cc2c(Nc3ccc(NC(=O)c4ccccc4)cc3)ncnc2cc1OCCCN1CCOCC1 | 108 ± 2%
67 | COc1cc2c(Oc3ccc(NC(=O)C4(C(=O)Nc5ccc(F)cc5)CC4)cc3F)ccnc2cc1OCCCN1CCOCC1 | 98 ± 5.1%
68 | COc1ccccc1N1CCN(CCN(C(=O)C2CCCCC2)c2ccccn2)CC1 | 100 ± 1.5%
69 | C[C@@H]1CCO[C@H]2Cn3cc(C(=O)NCc4ccc(F)cc4F)c(=O)c(O)c3C(=O)N12 | 102.2 ± 0.83%
70 | C[S+]([O-])c1ccc(-c2nc(-c3ccc(F)cc3)c(-c3ccncc3)[nH]2)cc1 (stereo not given) | 98.1 ± 2.8%
71 | Cc1[nH]c(/C=C2\C(=O)Nc3ccc(S(=O)(=O)N(C)c4cccc(Cl)c4)cc32)c(C)c1C(=O)N1CCN(C)CC1 | 101 ± 1.8%
72 | Cc1[nH]nc2ccc(-c3cncc(OC[C@@H](N)Cc4ccccc4)c3)cc12 | 97.8 ± 2.1%
73 | Cc1c(NC(=O)OC[C@@H]2COCCN2)cn2ncnc(Nc3ccc4c(cnn4Cc4cccc(F)c4)c3)c12 | 97.6 ± 2%
74 | Cc1ccc(C(=O)N(CCCN)[C@@H](c2oc3cc(Cl)ccc3c(=O)c2Cc2ccccc2)C(C)C)cc1 | 75.95 ± 0.11%
75 | Cc1ccc(NC(=O)c2cccc(N(C)C)c2)cc1NC(=O)c1ccc(O)cc1 | 100.2 ± 0.28%
76 | Cc1cccc(-c2[nH]c(C(C)(C)C)nc2-c2ccc3nccnc3c2)n1 | 101.9 ± 0.66%
77 | Cc1cnc(Nc2ccc(N3CCN(C)CC3)cc2)nc1Nc1cccc(S(=O)(=O)NC(C)(C)C)c1 | 109 ± 6.5%
78 | Cn1c(N2CCCCS2(=O)=O)nc(C(=O)NCc2ccc(F)cc2)c(O)c1=O | 106 ± 1.5%
79 | Cn1cc(C2=C(c3ccc(Cl)cc3Cl)C(=O)NC2=O)c2ccccc21 | 98.2 ± 1.1%
80 | N#Cc1c(O)c2c(-c3ccc(-c4ccccc4O)cc3)csc2[nH]c1=O | 99.8 ± 4.8%
81 | NC(=O)[C@@H](CCC(F)(F)F)N(Cc1ccc(-c2ncon2)cc1F)S(=O)(=O)c1ccc(Cl)cc1 | 124 ± 2.7%
82 | NC(=O)c1ccc(-c2nc(-c3ccccn3)c(-c3ccc4c(c3)OCO4)[nH]2)cc1 | 114.2 ± 0.63%
83 | NC(=O)c1cccc2[nH]c(-c3ccc(C4CCCN4)cc3F)nc12 (stereo not given) | 104 ± 4.6%
84 | Nc1nccc(Oc2ccc(NC(=O)c3c[nH]cc(-c4ccc(F)cc4)c3=O)cc2F)c1Cl | 111 ± 3.1%
85 | O=C(NC[C@H](O)CO)c1ccncc1Nc1ccc(I)cc1F | 101 ± 3.2%
86 | O=C1NC(=O)/C(=C/c2ccc(-c3ccc(F)cc3O)o2)S1 | 102 ± 1.2%
87 | O=C1NC(=O)/C(=C/c2ccc3c(c2)OC(F)(F)O3)S1 | 102 ± 1.9%
88 | O=C1NC(=O)/C(=C\c2ccc3nccnc3c2)S1 | 120.5 ± 1.1%
89 | Oc1c2ccccc2c2c3c(cccc13)N=N2 | 105 ± 1.1%
90 | Oc1ccc(-c2nc(-c3ccc(F)cc3)c(-c3ccncc3)[nH]2)cc1 | 104 ± 3.6%
